Values quoted from earlier work as cited in patent publication US20150209375A1, “POSOLOGY AND ADMINISTRATION OF GLUCOCORTICOID BASED COMPOSITIONS” (DuoCort Pharma AB, priority 2010, published 2015).

Details: Lennernäs et al 2008

- BCS class (Amidon et al 1995): BCS class II
- extraction: low extraction drug
Compound: C[C@]12CCC(=O)C=C1CC[C@@H]1[C@@H]2[C@@H](O)C[C@@]2(C)[C@H]1CC[C@]2(O)C(=O)CO [Hydrocortisone]
